Measurements as given in patent publication US20120270875A1, “PYRIMIDINE AMIDE COMPOUNDS” (priority 2011, published 2012).

Key:
sLFA-1/ICAM-1 = sLFA-1/ICAM-1 (Homo sapiens, UniProt P05107+P20701, DEL701-769); experiment: sLFA-1/ICAM-1 ELISA; format: binding; conditions: sLFA-1 coated plates, 5dICAM-Fc binding, ELISA; read-out: LFA-1/ICAM (IC50)
Protocol: (§1) sLFA-1/ICAM-1 ELISA and Mac-1/ICAM-1 ELISA
(§2) Plates were coated with either 50 μl/well of 2.0 ug/ml solution of sLFA-1 or Mac-1 receptor in divalent cation buffer (1 mM MnCl2, 0.14M NaCl, 20 mM HEPES pH 7.2) at 4° C. overnight. Two hundred fifty μl of blocking buffer (1% BSA in divalent cation buffer) was added to each well 1 hour at 37° C. Plates were washed 3 times with wash buffer (TBS/0.05% Tween-20/1 mM MnCl2). The compound to be tested was solubilized in DMSO. A series of 1:3 dilutions were performed to achieve a concentration range of 0.45 nM-3 uM. Fifty μl of binding buffer (0.5% BSA in divalent cation buffer)/1% DMSO and 50 μl of the solutions to be tested were added to the appropriate wells and incubated for 1 hour. Fifty μl of 5dICAM-Fc (27 ng/ml) was added to the appropriate wells and 50 μl binding buffer was added to non-specific binding wells and incubated for 2 hours and washed. One hundred μl of 1:4000 HRP-goat anti-huIgG was added to each well and incubated for 1 hour and washed. One hundred μl of 1:1 TMB solution was added to each well and developed for 20 min at room temperature. Color development was stopped by adding 100 μl H3PO4 to each well. Absorbance was measured at 450 nm.

Mac-1/ICAM-1 = Mac-1/ICAM-1 (Homo sapiens, UniProt P05107+P11215); experiment: Mac-1/ICAM-1 ELISA; conditions: Mac-1 coated plates, 5dICAM-Fc binding
Protocol: as §1, §2

[1] = tested on: PBMC's from two healthy donors; experiment: Human Mixed Lymphocyte Reaction (hMLR); format: cell-based; conditions: 3H-thymidine incorporation, read-out: human MLR (IC50)
Protocol: Human Mixed Lymphocyte Reaction (hMLR)
PBMC's were isolated from two healthy donors by Ficoll gradient. Cells were resuspended with 4 mL assay media and counted with a Coulter Counter. Both cell populations were resuspended to 1×10^7/mL. Stimulator cells were irradiated for 2.5 min (2000 RAD) in cesium irradiator. 5×10^5 cells were added to duplicate wells of the plate. Included were quadruplicate wells receiving responder cells alone and stimulator cells alone. The compound to be tested was solubilized in DMSO. A series of 1:3 dilutions were performed to achieve a concentration range of 0.45 nM-3 uM. One hundred μl of the solutions to be tested were added to the cell plate (100 μl of 2% DMSO/media added to control wells). Plates were then incubated for 2.5 days at 37° C. with 5% CO2. Plates were pulsed with 50 μl/well 3H-thymidine at 0.5 uCi/well then incubated for 6 hours at 37° C. with 5% CO2. Cells were harvested using Cell Harvester (TomTec) and counted on TopCount (Perkin Elmer).

Chain of sLFA-1/ICAM-1 (P20701 26-1090 limits assumed, stated change not applied): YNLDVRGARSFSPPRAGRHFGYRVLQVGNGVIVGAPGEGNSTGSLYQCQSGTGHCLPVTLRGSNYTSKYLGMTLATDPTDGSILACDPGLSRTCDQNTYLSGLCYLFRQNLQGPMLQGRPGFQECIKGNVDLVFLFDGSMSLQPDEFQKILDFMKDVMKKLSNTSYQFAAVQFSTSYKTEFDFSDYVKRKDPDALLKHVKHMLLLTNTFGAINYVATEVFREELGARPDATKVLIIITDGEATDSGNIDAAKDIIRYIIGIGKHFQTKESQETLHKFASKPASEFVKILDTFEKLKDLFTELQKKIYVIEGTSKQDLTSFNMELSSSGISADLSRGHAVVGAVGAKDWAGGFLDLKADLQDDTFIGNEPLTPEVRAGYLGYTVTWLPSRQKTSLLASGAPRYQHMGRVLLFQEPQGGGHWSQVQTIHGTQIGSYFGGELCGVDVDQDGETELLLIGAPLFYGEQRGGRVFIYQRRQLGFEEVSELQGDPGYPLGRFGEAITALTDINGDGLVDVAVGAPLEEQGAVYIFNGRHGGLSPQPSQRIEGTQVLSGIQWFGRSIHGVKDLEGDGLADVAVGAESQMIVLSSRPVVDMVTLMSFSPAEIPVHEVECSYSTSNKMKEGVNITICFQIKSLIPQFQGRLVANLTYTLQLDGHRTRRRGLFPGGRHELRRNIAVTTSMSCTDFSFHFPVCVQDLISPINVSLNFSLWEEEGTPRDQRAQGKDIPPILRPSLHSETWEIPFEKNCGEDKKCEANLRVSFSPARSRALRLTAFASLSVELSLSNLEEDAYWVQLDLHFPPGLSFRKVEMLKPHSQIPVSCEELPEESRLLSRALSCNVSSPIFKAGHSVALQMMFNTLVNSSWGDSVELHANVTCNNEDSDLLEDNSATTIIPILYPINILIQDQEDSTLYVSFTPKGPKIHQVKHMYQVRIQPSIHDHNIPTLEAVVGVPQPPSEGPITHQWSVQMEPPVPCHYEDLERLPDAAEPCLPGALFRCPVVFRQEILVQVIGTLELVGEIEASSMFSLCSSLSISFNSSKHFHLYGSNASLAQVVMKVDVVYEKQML
Chain of sLFA-1/ICAM-1 (P05107 23-700 limits assumed, stated change not applied): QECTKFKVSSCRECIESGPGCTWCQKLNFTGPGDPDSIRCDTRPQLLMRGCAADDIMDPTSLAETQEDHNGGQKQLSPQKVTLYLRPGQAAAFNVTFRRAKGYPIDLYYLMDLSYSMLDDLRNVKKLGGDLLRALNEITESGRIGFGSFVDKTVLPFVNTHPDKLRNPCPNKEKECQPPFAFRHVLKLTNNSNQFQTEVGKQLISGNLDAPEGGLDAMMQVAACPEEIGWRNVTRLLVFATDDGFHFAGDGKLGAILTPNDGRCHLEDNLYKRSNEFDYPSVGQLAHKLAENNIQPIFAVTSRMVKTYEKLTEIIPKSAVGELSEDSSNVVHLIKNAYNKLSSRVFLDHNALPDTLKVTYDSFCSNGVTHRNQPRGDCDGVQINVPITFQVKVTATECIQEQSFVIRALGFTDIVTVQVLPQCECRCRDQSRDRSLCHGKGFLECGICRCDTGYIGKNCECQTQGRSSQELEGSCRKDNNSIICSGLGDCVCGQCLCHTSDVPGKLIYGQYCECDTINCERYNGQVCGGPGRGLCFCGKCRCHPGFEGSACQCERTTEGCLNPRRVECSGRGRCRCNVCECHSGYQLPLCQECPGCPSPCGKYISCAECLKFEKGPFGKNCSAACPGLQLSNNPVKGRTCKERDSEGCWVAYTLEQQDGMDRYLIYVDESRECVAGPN
Chain of Mac-1/ICAM-1 (P05107 23-769, other chains not shown): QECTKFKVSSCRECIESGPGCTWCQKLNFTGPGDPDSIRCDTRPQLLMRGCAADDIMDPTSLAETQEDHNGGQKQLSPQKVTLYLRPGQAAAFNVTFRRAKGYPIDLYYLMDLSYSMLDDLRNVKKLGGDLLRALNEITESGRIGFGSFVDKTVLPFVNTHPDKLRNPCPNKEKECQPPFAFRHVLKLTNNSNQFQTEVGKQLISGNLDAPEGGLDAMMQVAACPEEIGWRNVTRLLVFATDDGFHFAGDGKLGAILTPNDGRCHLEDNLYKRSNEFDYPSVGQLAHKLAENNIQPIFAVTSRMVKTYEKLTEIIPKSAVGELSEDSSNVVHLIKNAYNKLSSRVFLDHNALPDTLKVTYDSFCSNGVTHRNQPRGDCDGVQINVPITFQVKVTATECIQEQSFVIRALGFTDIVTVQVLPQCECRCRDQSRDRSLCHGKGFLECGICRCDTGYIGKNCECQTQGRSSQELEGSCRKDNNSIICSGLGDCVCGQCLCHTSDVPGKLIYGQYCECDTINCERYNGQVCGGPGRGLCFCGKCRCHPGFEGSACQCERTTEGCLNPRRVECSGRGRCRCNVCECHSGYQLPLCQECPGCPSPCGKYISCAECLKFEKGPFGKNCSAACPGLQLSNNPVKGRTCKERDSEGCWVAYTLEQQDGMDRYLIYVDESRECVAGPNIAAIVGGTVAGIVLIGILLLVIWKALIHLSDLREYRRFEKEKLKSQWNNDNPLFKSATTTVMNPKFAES

| IC50 (sLFA-1/ICAM-1) | IC50 (Mac-1/ICAM-1) | SMILES | IC50 [1] |
| --- | --- | --- | --- |
| 0.073 µM | 0.441 µM | Cc1nc(CCCCc2cccc(O)c2)nc(C)c1C(=O)N[C@@H](CNC(=O)c1cccs1)C(=O)O [Example 1, (S)-2-({2-[4-(3-hydroxy-phenyl)-butyl]-4,6-dimethyl-pyrimidine-5-carbonyl}-amino)-3-[(thiophene-2-carbonyl)-amino]-propionic acid] | 4.46 µM |
| 0.032 µM | 0.057 µM | Cc1nc(OCCCc2cccc(O)c2)nc(C)c1C(=O)N[C@@H](CNC(=O)c1cccs1)C(=O)O [Example 3, (S)-2-({2-[3-(3-hydroxy-phenyl)-propoxy]-4,6-dimethyl-pyrimidine-5-carbonyl}-amino)-3-[(thiophene-2-carbonyl)-amino]-propionic acid] | 0.574 µM |
| 0.021 µM | 0.02 µM | Cc1nc(NCCCc2cccc3[nH]ncc23)nc(C)c1C(=O)N[C@@H](CNC(=O)c1cccs1)C(=O)O [Example 6, (S)-2-({2-[3-(1H-indazol-4-yl)-propylamino]-4,6-dimethyl-pyrimidine-5-carbonyl}-amino)3-[(thiophene-2-carbonyl)-amino]-propionic acid] | 0.374 µM |
| 0.04 µM | 0.12 µM | Cc1nc(NCCCc2cccc(O)c2)nc(C)c1C(=O)N[C@@H](CNC(=O)c1cccs1)C(=O)O [Example 8, (S)-2-({2-[3-(3-hydroxy-phenyl)-propylamino]-4,6-dimethyl-pyrimidine-5-carbonyl}-amino)3-[(thiophene-2-carbonyl)-amino]-propionic acid] | 0.678 µM |
| 0.041 µM | 0.055 µM | Cc1nc(NCC#Cc2cccc(O)c2)nc(C)c1C(=O)N[C@@H](CNC(=O)c1cccs1)C(=O)O [Example 61, (S)-2-({2-[3-(3-Hydroxy-phenyl)-prop-2-ynylamino]-4,6-dimethyl-pyrimidine-5-carbonyl}-amino)-3-[(thiophene-2-carbonyl)-amino]-propionic acid] | 1.18 µM |
| 0.08 µM | 0.045 µM | Cc1nc(NCC#Cc2cccc3[nH]ncc23)nc(C)c1C(=O)N[C@@H](CNC(=O)c1cccs1)C(=O)O [Example 62, (S)-2-({2-[3-(1H-Indazol-4-yl)-prop-2-ynylamino]-4,6-dimethyl-pyrimidine-5-carbonyl}-amino)-3-[(thiophene-2-carbonyl)-amino]-propionic acid] | 3.81 µM |
| 0.323 µM | 0.67 µM | Cc1nc(NCCCc2ccc3cn[nH]c3c2)nc(C)c1C(=O)N[C@@H](CNC(=O)c1cccs1)C(=O)O [Example 63, (S)-2-({2-[3-(1H-Indazol-6-yl)-propylamino]-4,6-dimethyl-pyrimidine-5-carbonyl}-amino)-3-[(thiophene-2-carbonyl)-amino]-propionic acid] |  |
| 0.035 µM | 0.023 µM | Cc1nc(NCCCc2cc(O)cc(F)c2)nc(C)c1C(=O)N[C@@H](CNC(=O)c1cccs1)C(=O)O [Example 64, (S)-2-({2-[3-(3-Fluoro-5-hydroxy-phenyl)-propylamino]-4,6-dimethyl-pyrimidine-5-carbonyl}-amino)-3-[(thiophene-2-carbonyl)-amino]-propionic acid] | 1.35 µM |
| 0.012 µM | 0.039 µM | Cc1nc(NCCCc2cccc(O)c2)nc(C)c1C(=O)N[C@@H](CNC(=O)c1cc(O)cc(O)c1)C(=O)O [Example 81] | 0.073 µM |
| 0.028 µM | 0.025 µM | Cc1nc(NCCCc2cccc(O)c2)nc(C)c1C(=O)N[C@@H](CNC(=O)c1cccc(O)c1)C(=O)O [Example 83] | 0.138 µM |
| 0.175 µM |  | Cc1nc(NC2CCc3cccc(O)c3C2)nc(C)c1C(=O)N[C@@H](CNC(=O)c1cnccn1)C(=O)O (stereo partly drawn) [Example 117, (S)-2-{[2-(8-Hydroxy-1,2,3,4-tetrahydro-naphthalen-2-ylamino)-4,6-dimethyl-pyrimidine-5-carbonyl]-amino}-3-[(pyrazine-2-carbonyl)-amino]-propionic acid] | 5.11 µM |
